Experimental data as given in US20260069588A1, “VEPDEGESTRANT FOR USE IN TREATING CANCER” (Arvinas Operation, Inc., priority 2022, published 2026).

Columns and labels:
[1] = GLP cardiovascular telemetry study in beagle dogs with TK phase; assay type: in vivo, dog
Protocol: A lead-in single-dose TK and tolerability study conducted prior to the telemetry study indicated approximately dose-proportional increase in exposure between 200 and 400 mg/kg in the dog.

[2] = test system: ER+/HER2− locally advanced/metastatic breast cancer; assay: FIH Study Part B (VERITAC): clinical benefit rate, PFS; assay type: in vivo, human
[3] = female, human, in vivo
From the text: The severity of adverse events was graded according to the National Cancer Institute Common Terminology Criteria for Adverse Events (NCI CTCAE) version 5.0.

[4] = 3-month GLP oral toxicity study in dogs; assay type: in vivo, dog; conditions: for Cmax / AUC(0-t): plasma, po, Day 91; for AUC(0-t): read-out: AUC0-24
Protocol: Male and female Beagle dogs, 4/sex/group, were administered 0 (vehicle), 10, 30, or 90 mg/kg/day. Assessment of toxicity was based on clinical observations, BWs, food consumption, ophthalmology, ECG evaluations, and clinical and anatomic pathology.

[5] = 28-day GLP oral toxicity study in dogs; assay type: in vivo; conditions: dog
From the text: There were no mortalities and no Compound A-related clinical observations, changes in BW or food consumption or ophthalmic observations. There were no ARV-471-related ECG abnormalities observed, including no effects on PR-interval, QRS duration, QT or QTc intervals, or heart rate and no arrhythmias or abnormal waveforms.

[6] = 7-day oral dose range finding toxicity study in rats; assay type: in vivo; conditions: rat, up to 300 mg/kg/day, 7 days
From the text: Noteworthy findings were changes in the female reproductive organs, including in the ovaries (minimal to moderate increased size of tertiary follicles, retained corpora lutea, and minimal to moderate interstitial cell hypertrophy), uterus (atrophy) and vagina (mucosa atrophy).

[7] = molecular target: Ikaros (Homo sapiens, UniProt Q13422); assay: Cereblon neomorphic substrate degradation, Ikaros; assay type: cell-based; conditions: in vitro
From the text: These drugs bind to cereblon and promote the degradation of novel (neomorphic) substrates.

[8] = Phase 2 study of Compound A or anastrozole in early ER+/HER2− breast cancer: adverse events
From the text: The study will also evaluate safety, tolerability, and clinical and pathological response after approximately 5.5 months of treatment.

[9] = Preliminary embryo-fetal development study
[10] = Plasma protein binding, rat; assay type: in vitro ADME; conditions: read-out: free fraction
[11] = molecular target: ERP (Homo sapiens, UniProt Q92731); assay: Secondary pharmacodynamics binding, ERP; conditions: in vitro
[12] = Plasma protein binding, monkey; assay type: in vitro ADME; conditions: read-out: free fraction
[13] = Preclinical PK after PO or intravenous dose; design: species or system mouse, dog, and monkey; conditions: rat, in vivo
[14] = 7-day oral dose range finding toxicity study in dogs; assay type: in vivo; conditions: dog, up to 120 mg/kg/day, 7 days
[15] = Caco-2 bidirectional permeability; assay type: in vitro ADME; conditions: human, Caco-2, 1.125 pM
[16] = test system: Caco-2 cells; assay: Caco-2 bidirectional permeability; assay type: in vitro ADME; conditions: 11.25 μM
[17] = molecular target: AR (Homo sapiens, UniProt P10275); assay: Secondary pharmacodynamics binding, AR; conditions: in vitro
[18] = both sexes, beagle, plasma, dog n=8, 400 mg/kg single oral, TK phase
[19] = Beagle, dog, female dogs, 90 mg/kg/day
[20] = Beagle, dog, male dogs, 90 mg/kg/day
[21] = TEAE, Treatment Related per title, Compound A 200 mg N = 23, Anastrozole 1 mg N = 13
[22] = female, Sprague-Dawley, rat, in vivo, oral, 30 mg/kg/day

Chain of AR (P10275 whole entry): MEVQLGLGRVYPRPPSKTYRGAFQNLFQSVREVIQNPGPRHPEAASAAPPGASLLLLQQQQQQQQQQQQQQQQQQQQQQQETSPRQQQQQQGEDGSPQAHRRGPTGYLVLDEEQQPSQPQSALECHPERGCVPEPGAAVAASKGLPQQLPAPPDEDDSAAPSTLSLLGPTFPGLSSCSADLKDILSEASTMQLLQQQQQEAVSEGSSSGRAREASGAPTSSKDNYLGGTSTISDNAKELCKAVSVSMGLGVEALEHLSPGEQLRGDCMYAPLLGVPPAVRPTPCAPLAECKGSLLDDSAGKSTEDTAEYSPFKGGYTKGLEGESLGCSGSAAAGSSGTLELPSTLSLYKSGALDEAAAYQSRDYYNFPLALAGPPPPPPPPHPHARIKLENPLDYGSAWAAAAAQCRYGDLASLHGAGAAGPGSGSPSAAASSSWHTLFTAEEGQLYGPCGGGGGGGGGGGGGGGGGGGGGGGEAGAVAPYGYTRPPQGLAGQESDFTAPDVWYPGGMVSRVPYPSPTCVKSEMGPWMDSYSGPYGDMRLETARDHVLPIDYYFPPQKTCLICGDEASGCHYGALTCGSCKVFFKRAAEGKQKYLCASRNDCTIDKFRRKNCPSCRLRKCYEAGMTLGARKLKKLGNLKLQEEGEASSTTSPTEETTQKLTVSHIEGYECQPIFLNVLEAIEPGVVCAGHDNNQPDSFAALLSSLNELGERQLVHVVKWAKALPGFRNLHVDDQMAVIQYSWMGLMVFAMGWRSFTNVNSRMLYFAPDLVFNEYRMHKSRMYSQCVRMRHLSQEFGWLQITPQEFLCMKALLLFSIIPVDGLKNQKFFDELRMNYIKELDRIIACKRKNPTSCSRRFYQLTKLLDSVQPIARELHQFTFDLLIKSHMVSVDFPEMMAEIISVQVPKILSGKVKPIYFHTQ
Chain of Ikaros (Q96SW2 whole entry partner, species assumed): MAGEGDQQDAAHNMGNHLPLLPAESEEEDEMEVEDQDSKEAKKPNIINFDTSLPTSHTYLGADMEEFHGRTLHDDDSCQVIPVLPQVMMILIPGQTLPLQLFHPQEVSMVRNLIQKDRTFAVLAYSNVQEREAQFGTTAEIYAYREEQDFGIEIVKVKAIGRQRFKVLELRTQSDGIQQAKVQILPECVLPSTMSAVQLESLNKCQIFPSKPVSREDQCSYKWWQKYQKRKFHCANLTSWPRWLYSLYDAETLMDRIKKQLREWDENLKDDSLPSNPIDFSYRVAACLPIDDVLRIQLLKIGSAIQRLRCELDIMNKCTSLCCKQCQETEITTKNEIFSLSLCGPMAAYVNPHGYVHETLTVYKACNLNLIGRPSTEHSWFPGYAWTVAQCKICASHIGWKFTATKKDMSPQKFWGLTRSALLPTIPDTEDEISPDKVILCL
Chain of Ikaros (Q16531 whole entry partner, species assumed): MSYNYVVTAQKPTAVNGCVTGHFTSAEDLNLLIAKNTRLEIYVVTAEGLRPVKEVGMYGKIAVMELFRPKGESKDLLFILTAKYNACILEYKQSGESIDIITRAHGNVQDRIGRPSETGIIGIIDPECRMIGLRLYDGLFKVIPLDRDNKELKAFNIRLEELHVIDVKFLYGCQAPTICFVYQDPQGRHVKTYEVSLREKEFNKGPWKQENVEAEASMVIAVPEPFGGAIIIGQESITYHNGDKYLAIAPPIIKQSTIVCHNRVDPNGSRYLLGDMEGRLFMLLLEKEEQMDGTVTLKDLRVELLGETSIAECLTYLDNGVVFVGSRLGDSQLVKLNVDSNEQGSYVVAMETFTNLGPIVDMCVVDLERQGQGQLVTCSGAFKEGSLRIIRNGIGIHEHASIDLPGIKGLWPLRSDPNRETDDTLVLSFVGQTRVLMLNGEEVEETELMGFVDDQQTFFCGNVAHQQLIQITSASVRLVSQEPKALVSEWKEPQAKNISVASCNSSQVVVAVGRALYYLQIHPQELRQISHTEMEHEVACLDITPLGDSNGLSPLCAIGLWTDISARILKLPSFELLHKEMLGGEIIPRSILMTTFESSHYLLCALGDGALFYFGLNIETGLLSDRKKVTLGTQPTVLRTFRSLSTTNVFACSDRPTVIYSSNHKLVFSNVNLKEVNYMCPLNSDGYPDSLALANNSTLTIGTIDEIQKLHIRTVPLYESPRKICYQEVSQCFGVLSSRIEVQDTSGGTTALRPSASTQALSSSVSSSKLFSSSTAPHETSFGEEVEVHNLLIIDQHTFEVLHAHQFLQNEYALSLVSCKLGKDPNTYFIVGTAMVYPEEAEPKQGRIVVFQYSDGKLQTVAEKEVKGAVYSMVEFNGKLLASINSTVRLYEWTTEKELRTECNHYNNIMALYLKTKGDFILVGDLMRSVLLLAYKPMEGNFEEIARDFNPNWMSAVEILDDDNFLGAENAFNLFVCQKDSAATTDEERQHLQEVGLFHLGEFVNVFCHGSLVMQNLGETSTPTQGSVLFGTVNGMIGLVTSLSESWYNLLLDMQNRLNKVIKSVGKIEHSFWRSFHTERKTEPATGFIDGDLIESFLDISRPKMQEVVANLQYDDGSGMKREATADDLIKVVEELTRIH
Chain of Ikaros (Q13422 whole entry, species assumed): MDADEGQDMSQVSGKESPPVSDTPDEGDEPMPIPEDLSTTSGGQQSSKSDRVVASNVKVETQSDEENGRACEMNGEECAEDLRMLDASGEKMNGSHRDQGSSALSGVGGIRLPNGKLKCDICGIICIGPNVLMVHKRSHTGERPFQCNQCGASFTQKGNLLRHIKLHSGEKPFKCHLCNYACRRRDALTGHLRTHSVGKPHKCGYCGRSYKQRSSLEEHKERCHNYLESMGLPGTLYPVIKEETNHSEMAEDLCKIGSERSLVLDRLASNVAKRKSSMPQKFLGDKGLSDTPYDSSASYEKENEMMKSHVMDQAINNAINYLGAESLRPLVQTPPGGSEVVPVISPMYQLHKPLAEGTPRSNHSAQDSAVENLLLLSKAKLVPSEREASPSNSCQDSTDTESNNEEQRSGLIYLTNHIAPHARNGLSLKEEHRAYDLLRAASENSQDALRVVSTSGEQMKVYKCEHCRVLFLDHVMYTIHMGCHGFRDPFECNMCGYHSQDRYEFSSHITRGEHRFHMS
Chain of ERP (Q92731 whole entry): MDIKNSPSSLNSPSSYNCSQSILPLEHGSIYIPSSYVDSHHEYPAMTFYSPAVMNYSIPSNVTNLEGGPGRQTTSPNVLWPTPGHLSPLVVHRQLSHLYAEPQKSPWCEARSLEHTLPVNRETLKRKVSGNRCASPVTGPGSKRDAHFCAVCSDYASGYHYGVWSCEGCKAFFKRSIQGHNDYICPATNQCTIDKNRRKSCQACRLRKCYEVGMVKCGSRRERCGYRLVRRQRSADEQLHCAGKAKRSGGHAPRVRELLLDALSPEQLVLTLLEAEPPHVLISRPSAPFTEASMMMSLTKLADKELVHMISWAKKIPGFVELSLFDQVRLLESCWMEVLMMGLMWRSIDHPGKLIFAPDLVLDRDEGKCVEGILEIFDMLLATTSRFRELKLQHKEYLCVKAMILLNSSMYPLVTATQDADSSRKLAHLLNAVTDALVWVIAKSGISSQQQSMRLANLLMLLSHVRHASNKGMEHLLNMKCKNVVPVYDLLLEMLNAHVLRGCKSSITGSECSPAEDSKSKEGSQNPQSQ

Work on `O=C1CC[C@H](N2Cc3cc(N4CCN(CC5CCN(c6ccc([C@@H]7c8ccc(O)cc8CC[C@@H]7c7ccccc7)cc6)CC5)CC4)ccc3C2=O)C(=O)N1` [Compound A, (S)-3-(5-(4-((1-(4-((1R,2S)-6-hydroxy-2-phenyl-1,2,3,4-tetrahydronaphthalen-1-yl)phenyl)piperidin-4-yl)methyl)piperazin-1-yl)-1-oxoisoindolin-2-yl)piperidine-2,6-dione] yielded a Cmax [1, 18] of 16000 ng/mL, a Tmax [1, 18] of 5.1 h and an AUC(0-t) ([1]; both sexes, beagle, plasma, dog n=8, 400 mg/kg single oral, TK phase, read-out: mean AUC0-24) of 272000 ng·h/mL. The “QT- or QTc-interval” value ([1]; dog, 400 mg/kg) was “no changes in QT- or QTc-interval”, the “shortening of the PR interval” value ([1]; dog, 400 mg/kg, 1 to 3.25 hours postdose) was 7 ms and the cardiovascular effects ([1]; dog, single oral 90 and 200 mg/kg) was “No Compound A-related effects were noted”. For the same compound, the median progression-free survival ([2]; 200 mg QD, all evaluable, 95% CI 1.8-7.8) was 3.5 months, the PFS ([2]; ITT (n=71)) was 3.7 months and the “TEAE COVID-19” value [3] was 11.8%. It also gave an NOAEL at 3 months ([4]; Beagle, dog, in vivo, oral, male dogs, 3 months) of 90 mg/kg/day, a Cmax [4, 19] of 4250 ng/mL and an AUC(0-t) [4, 19] of 73100 ng·h/mL. The Cmax [4, 20] was 4880 ng/mL, the AUC(0-t) [4, 20] was 83500 ng·h/mL and the ECG intervals ([4]; dog, 90 mg/kg/day, Day 85) was “nonadverse increases in QT-, QTc-, and PR-intervals”. For the same compound, the NOAEL ([4]; female dogs, 3 months) was “A NOAEL was not identified”, the ECG evaluations ([5]; 28 days, up to 90 mg/kg/day) was “did not elicit any changes in ECG evaluations” and the NOAEL at 28 days ([5]; in vivo, 28 days oral) was 90 mg/kg/day. For the same compound, the tolerability [6] was “well tolerated”, the “degradation of Ikaros” value [7] was “did not degrade” and the “participants on Compound A with a treatment-related AE” value ([8]; 200 mg, seven participants, 6 Jun 2023) was 19.4%. The Anemia [8, 21] was 0 n (%), the Arthralgia [8, 21] was 0 n (%) and the Asphyxia [8, 21] was 1 (4.3) n (%). The Asthenia [8, 21] was 2 (8.7) n (%), the “Blood and lymphatic system disorders” value [8, 21] was 1 (4.3) n (%) and the “Blood uric acid increased” value [8, 21] was 1 (4.3) n (%). The Breast pain [8, 21] was 1 (4.3) n (%), the Cardiac disorders [8, 21] was 1 (4.3) n (%) and the Constipation [8, 21] was 2 (8.7) n (%). The Diarrhea [8, 21] was 1 (4.3) n (%), the Dyspepsia [8, 21] was 0 n (%) and the Fatigue [8, 21] was 1 (4.3) n (%). The Gastrointestinal disorders [8, 21] was 4 (17.4) n (%), the “General disorders and administration site conditions” value [8, 21] was 4 (17.4) n (%) and the Hematocrit decreased [8, 21] was 0 n (%). For the same compound, the Heparin-induced thrombocytopenia [8, 21] was 1 (4.3) n (%), the Hepatobiliary disorders [8, 21] was 3 (13.0) n (%) and the Hot flush [8, 21] was 3 (13.0) n (%). The Hyperbilirubinemia [8, 21] was 2 (8.7) n (%), the Hypercalcemia [8, 21] was 1 (4.3) n (%) and the Hyperglycemia [8, 21] was 2 (8.7) n (%). For the same compound, the Hypernatremia [8, 21] was 1 (4.3) n (%), the Hypertransaminasemia [8, 21] was 1 (4.3) n (%) and the Hypokalemia [8, 21] was 1 (4.3) n (%). The Hyponatremia [8, 21] was 1 (4.3) n (%), the “Injury, poisoning and procedural complications” value [8, 21] was 1 (4.3) n (%) and the Insomnia [8, 21] was 1 (4.3) n (%). The Investigations [8, 21] was 1 (4.3) n (%), the Lymphopenia [8, 21] was 0 n (%) and the “Metabolism and nutrition disorders” value [8, 21] was 2 (8.7) n (%). For the same compound, the “Musculoskeletal and connective tissue disorders” value [8, 21] was 0 n (%), the Myalgia [8, 21] was 0 n (%) and the Nervous system disorders [8, 21] was 2 (8.7) n (%). The Odynophagia [8, 21] was 1 (4.3) n (%), the Procedural pain [8, 21] was 1 (4.3) n (%) and the Pruritus [8, 21] was 1 (4.3) n (%). The Psychiatric disorders [8, 21] was 2 (8.7) n (%), the Pyrexia [8, 21] was 1 (4.3) n (%) and the “Reproductive system and breast disorders” value [8, 21] was 1 (4.3) n (%). For the same compound, the “Respiratory, thoracic and mediastinal disorders” value [8, 21] was 1 (4.3) n (%), the Sinus bradycardia [8, 21] was 1 (4.3) n (%) and the “Skin and subcutaneous tissue disorders” value [8, 21] was 1 (4.3) n (%). For the same compound, the Somnolence [8, 21] was 2 (8.7) n (%), the Stomatitis [8, 21] was 1 (4.3) n (%) and the Tension [8, 21] was 1 (4.3) n (%). For the same compound, the Vascular disorders [8, 21] was 3 (13.0) n (%), the “With Any Adverse Event” value [8, 21] was 11 (47.8) n (%) and the “TK animals confirmed pregnant at GD 18” value ([9]; 30 mg/kg) was 5/6. For the same compound, the “females with pregnancy confirmed at GD 21” value (from here on “females”) ([9]; 30 mg/kg) was 7/8, the post implantation loss ([9]; 30 mg/kg/day) was 47.31% and the “mean number of live fetuses” value ([9]; 30 mg/kg/day, controls 11.3) was 7.0 live fetuses/litter. The “TK animals confirmed pregnant at GD 18” value ([9]; 100 mg/kg) was 3/6, the “females” value ([9]; 100 mg/kg) was 4/8 and the “mean number of live fetuses” value ([9]; 100 mg/kg/day) was “no live fetuses/litter”. The post implantation loss ([9]; 100 mg/kg/day) was 100%, the “TK animals confirmed pregnant at GD 18” value ([9]; 300 mg/kg) was 0/6 and the “females” value ([9]; 300 mg/kg) was 0/8. For the same compound, the AUC(0-t) [9, 22] was 4380 ng·h/mL, the Cmax [9, 22] was 291 ng/mL and the “external or visceral malformations or variations” value ([9]; surviving fetuses, 30 mg/kg/day) was “did not produce any external or visceral malformations or variations”. The fraction unbound at 1 μM [10] was 0.082, the binding [11] was “bound” and the fraction unbound at 1 μM [12] was 0.04. For the same compound, the bioavailability ([13]; mouse, dog, monkey, po, range across species) was 27 to 65%, the half-life ([13]; mouse, dog, monkey, range across species) was 2.1 to 8.2 h and the Vd ([13]; intravenous, read-out: VSS) was 6 L/kg. For the same compound, the tolerability [14] was “well tolerated”, the Papp A→B at 1.125 pM ([15]; read-out: permeability apical to basolateral) was 1.33 ×10⁻⁶ cm/s and the Papp B→A at 1.125 pM ([15]; read-out: permeability basolateral to apical) was 0.08 ×10⁻⁶ cm/s. The bidirectional permeability [16] was “Similarly low bidirectional permeability” and the binding [17] was “bound”.
